Columns and labels:
[1] = biological target: T1, α4[R353Q]β2δ GABAA receptors (UniProt P63138+Q9D6F4, R389Q); experiment: Patch clamp of GABA-gated current at mutated receptors in HEK-293 cells; assay type: cell-based, mouse α4; settings: 30 nM THP
T1 construct: expressed in transfected cells; host or cells: HEK-293
Experimental: (§1) Whole cell patch clamp recording—GABA-gated currents were recorded at room temperature (20-22° C.) at a holding potential of −50 mV^14. The pipet solution contained (in mM): N-methyl-D-glucamine chloride 120, Cs4BAPTA 5 (Calbiochem), Mg-ATP 5, and an ATP regeneration system (20 mM Tris phosphocreatine and creatine kinase). Internal [Cl^−] or the holding potential were varied, using gluconate as the anion, to alter the direction of Cl^− flow, corrected for the junction potential. In some cases, current-voltage curves were constructed using the peak current response to agonist or agonist+THP across a range of holding potentials (−60 to +60) applied as 10 mV steps, or as a voltage ramp. […] Traces are presented as the average of 3 traces after subtraction of the leak current. […] This rapid application technique yields currents with a rapid rise phase. THP was also bath applied 30 s prior to tests of steroid effects. Currents were recorded using an Axopatch 1D amplifier (Axon Instruments) filtered at 2 kHz (four-pole Bessel filter) and detected at 10 kHz (pClamp 5.1). Analysis of peak current was accomplished with pClamp 9.2 and Origin software (Microcal).
(§2) Mutagenesis: Site-directed mutations were made using the Quik-Change Mutagenesis Kit I or II (Stratagene Inc., La Jolla, Calif.). Numbering of mutated residues was based on the distance from arginine 99^19. Successful mutations were verified with double-stranded sequencing of end-products (Genewiz Inc., North Brunswick, N.J.).
(§3) Recombinant receptors: Human embryonic kidney (HEK)-293 cells were transfected with α4 β2δ or other indicated subunit combinations (see Supplementary Methods) and co-transfected with enhanced green fluorescent protein for visualization. GABA-gated currents were recorded at room temperature (20-22° C.) at a holding potential of −50 mV^17 using a pipet solution containing 120 mM: N-methyl-D-glucamine chloride. Internal [Cl^−] or the holding potential were varied to alter the direction of Cl^− flow. […] Currents were recorded using an Axopatch 1D amplifier (Axon Instruments) filtered at 2 kHz (four-pole Bessel filter), detected at 10 kHz and analyzed with pClamp 9.2. Desensitization rate was determined using non-linear curve-fitting routines (Origin, Microcal; see next section).

[2] = test system: α4β2δ GABAA receptors with α4 mutations R351Q, K352Q, K316Q, R317Q and K318Q; experiment: as above; assay type: cell-based, mouse α4; settings: 30 nM THP
Experimental: as §1, §2, §3

[3] = biological target: T2, α4(R353K)β2δ GABAA receptors (UniProt P63138+Q9D6F4, R389K); experiment: as above; assay type: cell-based, mouse α4; settings: 30 nM THP
T2 construct: expressed in transfected cells; host or cells: HEK-293
Experimental: as §1, §2, §3

[4] = biological target: T3, α4(R353C)β2δ GABAA receptors (UniProt P63138+Q9D6F4, R389C); experiment: as above; assay type: cell-based, mouse α4; settings: 30 nM THP
T3 construct: expressed in transfected cells; host or cells: HEK-293
Experimental: as §1, §2, §3

α4β2γ2 receptors = experiment: Whole cell patch clamp of GABA-gated current, recombinant receptors in HEK-293 cells; assay type: cell-based, human or mouse α4, rat β2, rat γ2; settings: 30 nM THP
Excerpt: (§4) Recombinant receptors: Transfection—Plasmids obtained from S. Vicini (rat α1, α5, β2, β3 and γ2), P. Whiting (human α4 and δ) and N. L. Harrison (mouse α4) were propagated in E coli DH5α and prepared using Qiagen Maxi- or Midi-prep kits. (Rat, mouse and human α1, β2, β3 and γ2 subunits are identical or nearly identical.) All receptors were transfected at a 1:1:1 ratio, except α1β2γ2 (1:1:5)^12, α4βδ (5:1:5)^13 and α4β2γ2 (5:1:1). HEK-293 cells were maintained in medium (DMEM:Ham's F-12 1:1) supplemented with 10% fetal calf serum at 37° C. in a humid 5% CO2 atmosphere. Cells were transfected using calcium phosphate or Polyfect (Qiagen) and co-transfected with enhanced green fluorescent protein (ratio of DNA to eGFP was 6:1 or 10:1 depending on the DNA concentration) for visualization. α4-containing GABAA receptors required 2-3 d for maximal levels of expression; all other receptors were recorded 1-2 d after transfection. Because mouse α4 and human α4-containing receptors yielded the same results, the currents were averaged together.
(§5) Whole cell patch clamp recording—GABA-gated currents were recorded at room temperature (20-22° C.) at a holding potential of −50 mV^14. […] Currents were recorded using an Axopatch 1D amplifier (Axon Instruments) filtered at 2 kHz (four-pole Bessel filter) and detected at 10 kHz (pClamp 5.1). […]

[5] = test system: CA1 hippocampal pyramidal cells; experiment: Tonic GABAergic current, perforated-patch voltage-clamp, hippocampal slice; assay type: cell-based, mouse
Experimental: Tonic current was recorded as the difference current produced by the selective GABAA receptor antagonist gabazine (120 μM) before and after 30 nM THP^4,29, while gramicidin perforated-patch recordings^33 were accomplished using 140 mM KCl plus 25 μg ml^−1 gramicidin in the pipet solution, recorded when the access resistance dropped to <60 MΩ after tight seal formation. Estimates of the direction of Cl^− current were obtained by recording using tight-seal cell-attached techniques^31 (>1 GΩ seal) in current clamp mode. A downward deflection signified outward (i.e., hyperpolarizing) Cl^− current.
One complication of whole-cell patch clamp recording is that normal ionic gradients are disrupted. Therefore, in order to verify that THP reduced tonic GABAergic currents in intact cells under conditions of unperturbed internal Cl^−, we directly recorded pharmacologically isolated tonic GABAergic current from the soma using perforated-patch voltage-clamp techniques in the hippocampal slice.

α4β3δ receptors = experiment: Whole cell patch clamp of GABA-gated current, recombinant receptors in HEK-293 cells; assay type: cell-based, human or mouse α4, rat β3, human δ; settings: 30 nM THP
Excerpt: as §4, §5

CC(=O)[C@H]1CC[C@H]2[C@@H]3CC[C@H]4C[C@H](O)CC[C@]4(C)[C@H]3CC[C@]12C [THP, 3α-OH-5α[β]-pregnan-20-one]
effect on inward current [1]: increased inward current
steroid-induced reduction in outward current at mutant receptor ([1]; R353Q): prevented the steroid-induced reduction in outward current
effect of mutation on THP inhibition of outward current [2]: had no effect
THP inhibition of outward current at mutant receptor [3]: did not prevent THP inhibition of outward current
steroid-induced reduction in outward current at mutant receptor [4]: prevented the steroid-induced reduction in outward current
effect on outward current (α4β2γ2 receptors): either increased or had no effect
depression of outward GABAergic current ([5]; 30 nM THP, pubertal, 1 μM TTX, 1 μM GABA): 40±8%
effect on post-synaptic GABAergic tonic current ([5]; before puberty): had no effect
effect on reversal potential ([5]; pubertal): did not alter the reversal potential
effect on GABA-gated conductance (gabazine-sensitive slope) ([5]; pubertal, 10 mV steps −60 to −40 mV): decreased the GABA-gated conductance
effect on outward current (α4β3δ receptors): either increased or had no effect

Source: patent US20090269795A1, “Mutant alpha4betadelta GABAA receptor and methods of treating anxiety or irritability” (priority 2007, published 2009)
